Test results reported in patent publication US10093673B2, “Tetracyclic pyridone compounds as antivirals” (Novartis AG, priority 2016, dated 2018).
pEC50: −log10 of the molar value. ≈ marks a conversion by molar mass, not a printed value. Like-named read-outs stand apart in the source and are kept apart here.

Legend:
HBsAg secretion = assay: HBsAg assay (ELISA of secreted HBsAg, HepG2-Clone42 cells); format: cell-based, HBV
Procedure: HepG2-Clone42, a Tet-inducible HBV-expressing cell line with a stably integrated 1.3mer copy of the HBV ayw strain, was generated based on the Tet-inducible HepAD38 cell line with slight modifications. Ladner S K, et al., Antimicrobial Agents and Chemotherapy. 41(8):1715-1720 (1997). HepG2-Clone42 cells were cultured in DMEM/F-12+Glutamax™ (Life Technologies, Carlsbad, Calif., USA), supplemented with 10% fetal bovine serum (Life Technologies), G-418 (Corning, Manassas, Va., USA) at a final concentration of 0.5 mg/mL, and 5 μg/mL Doxycycline (Sigma, St. Louis, Mo., USA) and maintained in 5% CO2 at 37° C.
HepG2-Clone42 cells were seeded in into black clear-bottom 96-well plates at a concentration of 6.0×10^4 cells/well. 24 hours post-seeding, the cells were treated with 200 μl/well of media containing five-fold serial dilutions of compounds in DMSO. DMSO alone was used as the no drug control. The final DMSO concentration in all wells was 0.5%.
The HBsAg ELISA kit (Alpha Diagnostic International, San Antonio, Tex., USE, Catalog #4110) was used to determine the level (semi-quantitative) of secreted HBV sAg.
The HBSAg ELISA assay was performed following the manufacturer's protocol as described.
Step 1. Pipet 100 μL each of compound or DMSO treated samples into HBsAg ELISA plates. Seal plates and incubate at room temp for 60 minutes.
Step 2. Aspirate samples and wash three times with Wash Buffer. Dispense 100μ of antibody-HRP conjugate to each well. Incubate at room temp for 30 minutes.
Step 3. Aspirate samples and wash three times with Wash Buffer. Add 100 μL of TMB Substrate to all wells and incubate 15 minutes at room temp.
Step 4. Dispense 100 μL of Stop Solution to each well. Measure absorbance of ELISA plate at 450 nm.
EC50 values were determined as follows: • 1. Determine the percent of HBsAg secretion inhibition. Calculate the percent inhibition on of HBsAg secretion inhibition using the following equation: 100×(XC−MB)/(MD−MB) • where XC is the absorbance signal from compound-treated well; MB is average absorbance signal (background signal) for column 12 (no cells+HBsAg ELISA sample buffer) and MD is average absorbance signal from DMSO-treated wells. Then calculate EC50 values by non-linear regression using a four parameter curve logistic equation. The curve fit model employed is XLFit Dose Response One Site Model 204: y=(A+((B−A)/(1+(10^((C−x)*D))))) where A is the minimum y value, B is the maximum y value, C is the log EC50 value, and D is the slope factor. High Throughput Solubility Measurement • 1. Transfer 20 ul of 10 mM DMSO stock solution into a 96 deep well plate labeled as […] and 5 ul to another plate labeled as compound standard plate. • 2. Place the buffer plate in a Multi-Tainer MT-4 container (FTS Systems). Freeze dry overnight to remove DMSO. • 3. Add 100 ul of Cl-free PBS (pH 6.8) to the dried compound in the buffer plate and 95 ul of DMSO to the standard plate. • 4. The buffer plate is be sonicated in a water bath for 10 min. • 5. The two plates are then placed onto the VWR orbital shaker to equilibrate for 24 hours at room temperature. • 6. The buffer plate is centrifuged at 4000 rpm for 30 min. • 7. Transfer 10 ul aliquots of supernatant from the buffer plate to a sample plate and dilute 5 fold. • 8. Inject both compound standard and sample into the UPLC/UV/CLND/MS to generate multi detector qualitative and quantitive analytical data. • 9. Data was processed with Xcalibur. CLND equimolar response was used for measuring compound concentration of DMSO solution. UV270 nm or MS relative ratio was used for solubility determination.

[1] = Pharmacokinetics in dog (iv and PO); format: in vivo; conditions: for Cmax / Tmax / AUC / clearance / bioavailability / Vd: in vivo; for bioavailability: read-out: Oral BA (% F); for Vd: read-out: Vss
[2] = Pharmacokinetics in rat (iv and PO); format: in vivo; conditions: for Cmax / Tmax / AUC / clearance / bioavailability / Vd: in vivo; for bioavailability: read-out: Oral BA (% F); for Vd: read-out: Vss
[3] = High throughput solubility measurement in PBS; format: physicochemical; conditions: Cl-free PBS, aqueous buffer, thermodynamic from solid; PBS (phosphate-buffered saline), pH 6.8, 24 hours at room temperature
From the text: The following table provides data for solubility of compounds of the invention in PBS (phosphate-buffered saline), using a standard solubility screening method.

[4] = Pharmacokinetics in mice (iv and PO); format: in vivo; conditions: for Cmax / Tmax / AUC / clearance / bioavailability / Vd: mouse, in vivo; for bioavailability: read-out: Oral BA (% F); for Vd: read-out: Vss
[5] = read-out: HBsAg EC50, HepG2-Clone42 cells, HBsAg secretion reduced 50% vs DMSO control
[6] = Hepatitis B virus, read-out: HBsAg EC50, HepG2-Clone42 cells, HBsAg secretion reduced 50% vs DMSO control

COCCCOc1cc2c(cc1OC)-c1cc(=O)c(C(=O)O)cn1C1C2CCCC1(C)C (single isomer, unassigned) [Compound 9.1, 11-methoxy-12-(3-methoxypropoxy)-4,4-dimethyl-8-oxo-2,3,4,4a,8,13b-hexahydro-1H-pyrido[1,2-f]phenanthridine-7-carboxylic acid]
pEC50 (HBsAg secretion; [5]): 8.05

COCCCOc1cc2c(cc1OC)-c1cc(=O)c(C(=O)O)cn1[C@H]1[C@H]2CCC1(C)C (racemic) [rac-2, 10-methoxy-11-(3-methoxypropoxy)-3,3-dimethyl-7-oxo-1,2,3,3a,7,12b-hexahydrocyclopenta[c]pyrido[2,1-a]isoquinoline-6-carboxylic acid]
pEC50 (HBsAg secretion; [6]): 6.34

COCCCOc1cc2c(cc1OC)-c1c(F)c(=O)c(C(=O)O)cn1[C@@H]1[C@H]2CCC1(C)C (racemic) [Compound 3.2]
pEC50 (HBsAg secretion; [6]): 6.13

COCCCOc1cc2c(cc1OC)-c1c(F)c(=O)c(C(=O)O)cn1[C@H]1[C@@H]2OCC1(C)C [Compound 7.1, (3aR,12bR)-8-fluoro-10-methoxy-11-(3-methoxypropoxy)-3,3-dimethyl-7-oxo-3,3a,7,12b-tetrahydro-2H-furo[3,2-c]pyrido[2,1-a]isoquinoline-6-carboxylic acid]
pEC50 (HBsAg secretion; [6]): 9.10

COCCCOc1cc2c(cc1OC)-c1cc(=O)c(C(=O)O)cn1[C@H]1[C@@H]2COC1(C)C [Compound 8.1, (3aS,12bR)-10-methoxy-11-(3-methoxypropoxy)-3,3-dimethyl-7-oxo-3,3a,7,12b-tetrahydro-1H-furo[3,4-c]pyrido[2,1-a]isoquinoline-6-carboxylic acid]
pEC50 (HBsAg secretion; [6]): 9.00

COCCCOc1cc2c(cc1OC)-c1cc(=O)c(C(=O)O)cn1[C@H]1[C@@H]2CCC1(C)C [Compound 1.1, (3aS,12bR)-10-methoxy-11-(3-methoxypropoxy)-3,3-dimethyl-7-oxo-1,2,3,3a,7,12b-hexahydrocyclopenta[c]pyrido[2,1-a]isoquinoline-6-carboxylic acid]
T1/2term. [1]: 5.9 h
Cmax ([1]; PO 1.0 mg/kg): 1900 nM
Tmax ([1]; PO 1.0 mg/kg): 0.22 h
AUC ([1]; PO 1.0 mg/kg, read-out: AUC PO): 5.7 µM·h
clearance ([1]; iv 0.5 mg/kg): 6.4 mL/min/kg
bioavailability ([1]; iv 0.5 mg/kg, PO 1.0 mg/kg): 93%
AUC ([1]; iv 0.5 mg/kg, read-out: AUC iv): 3.1 µM·h
Vd ([1]; iv 0.5 mg/kg): 1.7 L/kg
pEC50 (HBsAg secretion; [6]): 10.00
T1/2term. [2]: 2.4 h
Cmax ([2]; PO 2.0 mg/kg): 1720 nM
Tmax ([2]; PO 2.0 mg/kg): 1.33 h
AUC ([2]; PO 2.0 mg/kg, read-out: AUC PO): 4.5 µM·h
clearance ([2]; iv 1.0 mg/kg): 15.3 mL/min/kg
bioavailability ([2]; iv 1.0 mg/kg, PO 2.0 mg/kg): 97%
AUC ([2]; iv 1.0 mg/kg, read-out: AUC iv): 2.5 µM·h
Vd ([2]; iv 1.0 mg/kg): 1.3 L/kg
solubility at 24 h [3]: 2400 µM (≈ 1030 µg/mL)
T1/2term. [4]: 1.6 h
Cmax ([4]; PO 2.0 mg/kg): 570 nM
Tmax ([4]; PO 2.0 mg/kg): 0.5 h
AUC ([4]; PO 2.0 mg/kg, read-out: AUC PO): 1.7 µM·h
clearance ([4]; iv 1.0 mg/kg): 24.6 mL/min/kg
bioavailability ([4]; iv 1.0 mg/kg, PO 2.0 mg/kg): 59%
AUC ([4]; iv 1.0 mg/kg, read-out: AUC iv): 1.5 µM·h
Vd ([4]; iv 1.0 mg/kg): 3.6 L/kg

COCCCOc1cc2c(cc1Cl)-c1cc(=O)c(C(=O)O)cn1[C@@H]1[C@H]2CCC1(C)C [Compound 5.2, (3aR,12bS)-10-chloro-11-(3-methoxypropoxy)-3,3-dimethyl-7-oxo-1,2,3,3a,7,12b-hexahydrocyclopenta[c]pyrido[2,1-a]isoquinoline-6-carboxylic acid]
pEC50 (HBsAg secretion; [6]): 10.00

COCCCOc1cc2c(cc1OC)-c1c(F)c(=O)c(C(=O)O)cn1C1[C@H]2OCC1(C)C (stereo partly shown) [Compound 7.2]
pEC50 (HBsAg secretion; [6]): 7.05

COCCCOc1cc2c(cc1OC)-c1cc(=O)c(C(=O)O)cn1C1CCCC21 (stereo not shown) [Compound 6.2, 10-methoxy-11-(3-methoxypropoxy)-7-oxo-1,2,3,3a,7,12b-hexahydrocyclopenta[c]pyrido[2,1-a]isoquinoline-6-carboxylic acid]
pEC50 (HBsAg secretion; [5]): 8.30

COCCCOc1cc2c(cc1Cl)-c1cc(=O)c(C(=O)O)cn1[C@H]1[C@@H]2CCC1(C)C (stereo in doubt) [Compound 5.1, (3aS,12bR)-10-chloro-11-(3-methoxypropoxy)-3,3-dimethyl-7-oxo-1,2,3,3a,7,12b-hexahydrocyclopenta[c]pyrido[2,1-a]isoquinoline-6-carboxylic acid]
pEC50 (HBsAg secretion; [6]): 8.22

COCCCOc1cc2c(cc1OC)-c1cc(=O)c(C(=O)O)cn1[C@@H]1[C@H]2CCC1(C)C [Compound 1.2, (3aR,12bS)-10-methoxy-11-(3-methoxypropoxy)-3,3-dimethyl-7-oxo-1,2,3,3a,7,12b-hexahydrocyclopenta[c]pyrido[2,1-a]isoquinoline-6-carboxylic acid]
pEC50 (HBsAg secretion; [6]): 7.89

COCCCOc1cc2c(cc1OC)-c1c(F)c(=O)c(C(=O)O)cn1[C@H]1[C@@H]2CCC1(C)C [Compound 3.1, (3aS,12bR)-8-fluoro-10-methoxy-11-(3-methoxypropoxy)-3,3-dimethyl-7-oxo-1,2,3,3a,7,12b-hexahydrocyclopenta[c]pyrido[2,1-a]isoquinoline-6-carboxylic acid]
T1/2term. [1]: 7.2 h
Cmax ([1]; PO 1.0 mg/kg): 6200 nM
Tmax ([1]; PO 1.0 mg/kg): 1.5 h
AUC ([1]; PO 1.0 mg/kg, read-out: AUC PO): 26.7 µM·h
clearance ([1]; iv 0.5 mg/kg): 1.3 mL/min/kg
bioavailability ([1]; iv 0.5 mg/kg, PO 1.0 mg/kg): 96%
AUC ([1]; iv 0.5 mg/kg, read-out: AUC iv): 13.3 µM·h
Vd ([1]; iv 0.5 mg/kg): 0.6 L/kg
pEC50 (HBsAg secretion; [6]): 9.52
T1/2term. [2]: 9.2 h
Cmax ([2]; PO 2.0 mg/kg): 6500 nM
Tmax ([2]; PO 2.0 mg/kg): 0.5 h
AUC ([2]; PO 2.0 mg/kg, read-out: AUC PO): 19.6 µM·h
clearance ([2]; iv 1.0 mg/kg): 2.1 mL/min/kg
bioavailability ([2]; iv 1.0 mg/kg, PO 2.0 mg/kg): 57%
AUC ([2]; iv 1.0 mg/kg, read-out: AUC iv): 16.6 µM·h
Vd ([2]; iv 1.0 mg/kg): 0.6 L/kg
solubility at 24 h [3]: 1600 µM (≈ 713 µg/mL)
T1/2term. [4]: 3.8 h
Cmax ([4]; PO 2.0 mg/kg): 3000 nM
Tmax ([4]; PO 2.0 mg/kg): 0.5 h
AUC ([4]; PO 2.0 mg/kg, read-out: AUC PO): 9.5 µM·h
clearance ([4]; iv 1.0 mg/kg): 6.9 mL/min/kg
bioavailability ([4]; iv 1.0 mg/kg, PO 2.0 mg/kg): 87%
AUC ([4]; iv 1.0 mg/kg, read-out: AUC iv): 5.5 µM·h
Vd ([4]; iv 1.0 mg/kg): 1 L/kg

COCCCOc1cc2c(cc1OC)-c1cc(=O)c(C(=O)O)cn1C1CCCC21 (stereo not shown) [Compound 6.1, 10-methoxy-11-(3-methoxypropoxy)-7-oxo-1,2,3,3a,7,12b-hexahydrocyclopenta[c]pyrido[2,1-a]isoquinoline-6-carboxylic acid]
pEC50 (HBsAg secretion; [6]): 8.05

COCCCOc1cc2c(cc1OC)-c1cc(=O)c(C(=O)O)cn1C1C2CCCC1(C)C (single isomer, unassigned) [Compound 9.2, 11-methoxy-12-(3-methoxypropoxy)-4,4-dimethyl-8-oxo-2,3,4,4a,8,13b-hexahydro-1H-pyrido[1,2-f]phenanthridine-7-carboxylic acid]
pEC50 (HBsAg secretion; [5]): 6.52
